# Read-outs that look alike come from different tables or passages of the source.
# Columns and labels:
# [1] = system: PfCRT-Q352R (parent Dd2); experiment: Cross-resistance EC50 assay, PfCRT-Q352R; type: cell-based; conditions: Plasmodium falciparum, DD2, 72 h, read-out: PfCRT:Q352R (Dd2 Parent) Average EC50
# Source text: (§1) To evaluate potential overlapping activity against known antimalarial drug targets, we performed dose-response studies with each compound against our assembled set of drug-resistant lines and their corresponding parents, in an asexual blood stage proliferation assay (Table 1). Comparisons were made to the drug-sensitive strain 3D7 when a parent was unavailable (TM90C2A, W2 and Dd2). As laboratories conducted EC50 assays with different strains and protocols, all comparisons were made between assays from the same laboratory and under the same assay conditions. Compounds displaying >5-fold EC50 shifts relative to the parent or sensitive strain were flagged as having potentially non-novel targets. Average fold shifts per strain ranged from 0.82 to 2.34, with a median of 1.23 indicating there was not common resistance to any one resistant clone. No resistance patterns were observed when classifying the compounds based on chemical structure, but this was not surprising given the diversity of compounds chosen. On the other hand, given that these confirmed compounds were derived from larger unconfirmed hit lists to which some filtration criteria may have been applied (for example, elimination of obvious dihydrofolate reductase inhibitors[32]), some[10][11][12][13] pre-existing bias may exist in the set. […]
# (§2) Alternatively, a SYBR Green-based proliferation approach was used for the 72-h assay, as previously described. Briefly, a culture of either synchronized or asynchronous parasitized RBCs (0.3% parasitemia and 4% haematocrit) in screening medium (identical to supplemented medium above except no serum was added) was exposed to serial drug dilutions. Plates were incubated at 37 °C and gassed with 93% N2, 4% CO2 and 3% O2 for 72 h. Following incubation, 10 × SYBR Green I (Invitrogen; supplied in 10,000 × concentration) in lysis buffer ([…], 5 mM EDTA, 0.16% Saponin wt per vol and 1.6% Triton X vol per vol) was added to the wells and the plates were incubated overnight at room temperature before plate reading. EC50 assays were repeated three times, taking the average EC50 value from each assay set, and removing any outliers using a single iteration of Grubbs' test, eliminating values with z-scores above the critical z-value (α=0.05). The raw EC50 values for synchronized parasites assayed in a 384-well format are listed in Supplementary Data 4. The raw EC50 values for asynchronous parasites assayed in a 96 or 1536-well format are listed in Supplementary Data 5.
# (§3) EC50 values for each strain were compared with those of the corresponding parent strain to determine fold-shift changes and identify resistance. To minimize the cause variance between assays, all comparisons were conducted between strains assayed under identical conditions. A one-way ANOVA followed by a Dunnet's post-test was conducted in GraphPad Prism to identify significant changes between the parent and resistant strain.
# [2] = system: TM90C2A (DHFR, folate pathway; compared with 3D7); experiment: Cross-resistance EC50 assay, TM90C2A; type: cell-based; conditions: Plasmodium falciparum, 48 h, read-out: TM90C2A (3D7 Parent) Average EC50
# Source text: (§4) To evaluate potential overlapping activity against known antimalarial drug targets, we performed dose-response studies with each compound against our assembled set of drug-resistant lines and their corresponding parents, in an asexual blood stage proliferation assay (Table 1). Comparisons were made to the drug-sensitive strain 3D7 when a parent was unavailable (TM90C2A, W2 and Dd2). As laboratories conducted EC50 assays with different strains and protocols, all comparisons were made between assays from the same laboratory and under the same assay conditions. Compounds displaying >5-fold EC50 shifts relative to the parent or sensitive strain were flagged as having potentially non-novel targets. Average fold shifts per strain ranged from 0.82 to 2.34, with a median of 1.23 indicating there was not common resistance to any one resistant clone. No resistance patterns were observed when classifying the compounds based on chemical structure, but this was not surprising given the diversity of compounds chosen. On the other hand, given that these confirmed compounds were derived from larger unconfirmed hit lists to which some filtration criteria may have been applied (for example, elimination of obvious dihydrofolate reductase inhibitors[32]), some[10][11][12][13] pre-existing bias may exist in the set.
# (§5) The 48-h assay was carried out in a 96-well format following standard methods using the ^3H-hypoxanthine incorporation assay. The raw EC50 values corresponding to this assay can be found in Supplementary Data 3. Briefly, this assay relies on the parasite incorporation of labelled hypoxanthine that is proportional to P. falciparum growth. A culture of parasitized RBCs (0.5% parasitemia with a percentage of ring stage higher than 70% of total parasitemia, 2.0% haematocrit) in RPMI-1640, […] and 5 μM hypoxanthine was exposed to drug serial dilutions. Plates were incubated for 24 h at 37 °C, 5% CO2, 5% O2 and 90% N2. After 24 h of incubation, ^3H-hypoxanthine was added and plates were incubated for an additional 24-h period. After that, parasites were harvested on a glass fibre filter using a TOMTEC Cell Harvester 96. Filters were dried and melt-on scintillator sheets were used to determine the incorporation of ^3H-hypoxanthine. Radioactivity was measured using a microbeta counter. Data were normalized using the incorporation of the positive (parasitized RBCs without drug) and negative (same culture with artesunate at 2 μM) controls. All assays were conducted in triplicate using three independently grown cultures, and EC50 values were determined using the XLfit add-in module for Excel (version 2.3.1) from Grafit (version 5.3.1.3), where parameter h is the assay hill slope, x is the compound concentration and y is the inhibition of growth effect. The XLfit equation is: […]
# as §3
# [3] = system: P. falciparum strain 3D7; experiment: Asexual blood stage 3H-hypoxanthine incorporation assay, 3D7; type: cell-based, Plasmodium falciparum; conditions: Plasmodium falciparum
# Procedure: as §5
# [4] = system: hsp90 (D88Y, parent Dd2); experiment: Cross-resistance EC50 assay, hsp90; type: cell-based; conditions: Plasmodium falciparum, SYBR green 72 hour assay, synchronized parasites, 384-well format
# Source text: as §1, §2, §3
# [5] = system: NITD609-R2 (PfATP4 T418N and P990R, parent Dd2); experiment: Cross-resistance EC50 assay, NITD609-R2; type: cell-based; conditions: Plasmodium falciparum, SYBR green 72 hour assay, asynchronized parasites, 96-well or 1536-well format
# Source text: as §1, §2, §3
# [6] = system: W2; experiment: Cross-resistance EC50 assay, W2 parent; type: cell-based, Plasmodium falciparum; conditions: Plasmodium falciparum, 48 h, read-out: W2F6 (PARENT) Average EC50
# Source text: Multidrug resistance alleles, including mutations in P. falciparum chloroquine resistance transporter (pfcrt) and P. falciparum multi-drug resistance transporter 1 (pfmdr1) are very common in field isolates. Therefore, we sought to assess the degree to which pre-existing resistance alleles would contribute to a loss of potency for this diverse collection of small molecule compounds. Fifteen clones derived from three main parent lines were chosen to maximize diversity in mutated pathways and genetic backgrounds, thus representing the variety of resistance seen in the field: 3D7 (ref. [23]), W2 (ref. [24]) or Dd2 (ref. [25]). The 3D7 line originates from the clone of a Netherlands clinical isolate strain[23][26] and is generally considered to be drug sensitive, though it does convey resistance to sulfadoxine. Conversely, W2 (ref. [24], [27]) and Dd2 (ref. [25]) are multi-drug-resistant lines originating from the Indochina III/CDC isolate, which contain point mutations in pfcrt as well as amplifications in pfmdr1 and GTP cyclohydrolase.
# as §4, §5
# Alternatively, a SYBR Green-based proliferation approach was used for the 72-h assay, as previously described. […]
# [7] = 3D7, asexual stage, P. falciparum 3D7, read-out: 3D7 EC50
smiles,measurement,setting,value
COc1cc2cc(C(=O)Nc3ccccc3)c(N)nc2cc1OC [MMV006767],EC50,[1],1480 nM
same,EC50,[2],2870 nM
same,EC50,[3]; [7],960 nM
same,EC50,[4]; strain HSP90 (Dd2 parent),3100 nM
same,EC50,[5],0.106 µM
same,EC50,[6],1820 nM
Cl.c1ccc2c(NCCCCCCNc3c4c(nc5ccccc35)CCCC4)c3c(nc2c1)CCCC3 [MMV019555],EC50,[1],166 nM
same,EC50,[2],280 nM
same,EC50,"[3]; 3D7, read-out: 3D7 EC50",87.3 nM
same,EC50,[4]; strain HSP90 (Dd2 parent),198 nM
same,EC50,[5],0.188 µM
same,EC50,[6],491 nM
OC(CNC1CCCCC1)Cn1c2ccccc2c2ccccc21 (stereo not drawn) [MMV009063],EC50,[1],315 nM
same,EC50,[2],537 nM
same,EC50,[3]; [7],790 nM
same,EC50,[4]; strain HSP90 (Dd2 parent),286 nM
same,EC50,[5],0.411 µM
same,EC50,[6],126 nM
CN(C)CCCNCc1ccc(-c2ccc(Cl)c(Cl)c2)o1 [MMV673964],EC50,[1],552 nM
same,EC50,[2],569 nM
same,EC50,[3]; [7],607 nM
same,EC50,"[4]; DD2, HSP90 strain",322 nM
same,EC50,[5],0.756 µM
same,EC50,[6],561 nM
CCCN(CCC)CC(O)COc1ccccc1C(=O)Nc1ccccc1 (stereo not drawn) [MMV006455],EC50,[1],1220 nM
same,EC50,[2],377 nM
same,EC50,[3]; [7],530 nM
same,EC50,[4]; strain HSP90 (Dd2 parent),2060 nM
same,EC50,[5],0.258 µM
same,EC50,[6],106 nM
Brc1ccc(Nc2nc3ccccc3nc2Nc2ccc(Br)cc2)cc1 [MMV007224],EC50,[1],287 nM
same,EC50,[2],154 nM
same,EC50,[3]; [7],222 nM
same,EC50,[4]; strain HSP90 (Dd2 parent),247 nM
same,EC50,[5],0.754 µM
same,EC50,[6],288 nM
CCOc1cc2c(cc1OCC)C(c1cc(Cl)ccc1O)NCC2 (stereo not drawn) [MMV000478],EC50,[1],785 nM
same,EC50,[2],1440 nM
same,EC50,[3]; [7],1070 nM
same,EC50,[4]; strain HSP90 (Dd2 parent),1050 nM
same,EC50,[5],0.661 µM
same,EC50,[6],172 nM
O=C(NCC(CCCN1CCC(c2c[nH]c3ccccc23)CC1)c1ccccc1)Nc1ccc(Cl)c(Cl)c1 (stereo not drawn) [MMV029272],EC50,[1],267 nM
same,EC50,[2],415 nM
same,EC50,[3]; [7],136 nM
same,EC50,[4]; strain HSP90 (Dd2 parent),710 nM
same,EC50,[5],0.152 µM
same,EC50,[6],836 nM
Nc1ncc(-c2cn[nH]c2)cc1-c1nc2ccc(F)cc2[nH]1 [MMV023367],EC50,[1],421 nM
same,EC50,[2],445 nM
same,EC50,[3]; [7],302 nM
same,EC50,[4]; strain HSP90 (Dd2 parent),491 nM
same,EC50,[5],1.6 µM
same,EC50,[6],244 nM
CC(C)c1cccc(C(NC(=O)C2Cc3ccccc3CN2C(=O)c2cccc(N3CCOCC3)c2)C2CCCC2)c1 (stereo not drawn) [MMV028038],EC50,[1],314 nM
same,EC50,[2],287 nM
same,EC50,[3]; [7],540 nM
same,EC50,[4]; strain HSP90 (Dd2 parent),432 nM
same,EC50,[5],0.612 µM
same,EC50,[6],489 nM
CN1CCN(c2ccc(Nc3c4ccccc4nc4ccccc34)cc2)CC1 [MMV006172],EC50,[1],75 nM
same,EC50,[2],162 nM
same,EC50,[3]; [7],95 nM
same,EC50,[4]; strain HSP90 (Dd2 parent),139 nM
same,EC50,[5],0.242 µM
same,EC50,[6],227 nM

# From PMC4912613, “A broad analysis of resistance development in the malaria parasite” (Nature Communications, 2016)
